In patent US20240150423A1, “GLP-1 ANALOGUE-MODIFIED DIMERS WITH DIFFERENT CONFIGURATIONS, PREPARATION METHOD THEREOF, AND APPLICATION THEREOF IN TREATMENT OF TYPE II DIABETES” (Nanjing Finepeptide Biopharmaceutical Co.,Ltd, priority 2019, published 2024):

How the values were obtained:
[1] = T2D model treatment: body weight and organ weights; type: in vivo, C57B16/J mice; conditions: 2G3 study, 35 days
Protocol: C57B16/J mice were placed in an SPF-level environment with a standard diet. All experimental operations were performed in accordance with the guidelines of the ethics and uses of experimental animals. […] The NaCl-PB group served as blank control and the model control group served as the T2D model control. They were injected with NaCl-PB solution. The T2D model group was fed with 60 kcal % high-fat diet (D12492, Changzhou SYSE Bio-tech. Co., Ltd., China) until the end of the experiment. Meanwhile the blank control group maintained standard diet. […] These groups were subjected to a 35-day treatment study on the basis of the high-fat diet. • 1. […] The monomeric peptides were dissolved into a saline solution (pH 6.5) for injection. • 2. […] The models were measured blood glucose at the tail and weight weighted every morning at 9 am. […] In the T2D treatment study, all T2D model mice were injected subcutaneously at the back hip in 100 μl per mouse within 30 min. The blood glucose of the experimental mice was measured every five days and the whole measurement was completed within 40 min. […] No. 8-9695-03-201-1, Novo Nordisk company, Switzerland) until the end of the 35-day experiment. • 3.

KM mice = assay: Hypoglycemia test in fasted KM mice at multiples of the low dose; type: in vivo; conditions: 8 and 68 times of low dose, KM mice fasted for 13 hour, within 3 hours after the administration
[2] = high dose 3.378 nmol/100 μL once a day
[3] = low dose 0.375 nmol/100 μL once a day
[4] = medium dose and Liraglutide group 1.126 nmol/100 μL once a day

Compound: CCCCCCCCCCCCCCCC(=O)N[C@@H](CCC(=O)NCCCC[C@H](NC(=O)[C@H](C)NC(=O)[C@H](C)NC(=O)[C@H](CCC(N)=O)NC(=O)CNC(=O)[C@H](CCC(=O)O)NC(=O)[C@H](CC(C)C)NC(=O)[C@H](Cc1ccc(O)cc1)NC(=O)[C@H](CSSC[C@H](NC(=O)[C@H](CO)NC(=O)[C@@H](NC(=O)[C@H](CC(=O)O)NC(=O)[C@H](CO)NC(=O)[C@@H](NC(=O)[C@H](Cc1ccccc1)NC(=O)[C@@H](NC(=O)CNC(=O)[C@H](CCC(=O)O)NC(=O)[C@H](C)NC(=O)[C@@H](N)Cc1c[nH]cn1)[C@@H](C)O)[C@@H](C)O)C(C)C)C(=O)N[C@@H](Cc1ccc(O)cc1)C(=O)N[C@@H](CC(C)C)C(=O)N[C@@H](CCC(=O)O)C(=O)NCC(=O)N[C@@H](CCC(N)=O)C(=O)N[C@@H](C)C(=O)N[C@@H](C)C(=O)N[C@@H](CCCCNC(=O)CC[C@H](NC(=O)CCCCCCCCCCCCCCC)C(=O)O)C(=O)N[C@@H](CCC(=O)O)C(=O)N[C@@H](Cc1ccccc1)C(=O)N[C@H](C(=O)N[C@@H](C)C(=O)N[C@@H](Cc1c[nH]c2ccccc12)C(=O)N[C@@H](CC(C)C)C(=O)N[C@H](C(=O)N[C@@H](CCCNC(=N)N)C(=O)NCC(=O)N[C@@H](CCCNC(=N)N)C(=O)NCC(=O)O)C(C)C)[C@@H](C)CC)NC(=O)[C@H](CO)NC(=O)[C@@H](NC(=O)[C@H](CC(=O)O)NC(=O)[C@H](CO)NC(=O)[C@@H](NC(=O)[C@H](Cc1ccccc1)NC(=O)[C@@H](NC(=O)CNC(=O)[C@H](CCC(=O)O)NC(=O)[C@H](C)NC(=O)[C@@H](N)Cc1c[nH]cn1)[C@@H](C)O)[C@@H](C)O)C(C)C)C(=O)N[C@@H](CCC(=O)O)C(=O)N[C@@H](Cc1ccccc1)C(=O)N[C@H](C(=O)N[C@@H](C)C(=O)N[C@@H](Cc1c[nH]c2ccccc12)C(=O)N[C@@H](CC(C)C)C(=O)N[C@H](C(=O)N[C@@H](CCCNC(=N)N)C(=O)NCC(=O)N[C@@H](CCCNC(=N)N)C(=O)NCC(=O)O)C(C)C)[C@@H](C)CC)C(=O)O [2G3 series 20]
- Weight of organs, Heart [1, 2]: 0.1235 ± 0.02 g
- Weight of organs, Left kidney [1, 2]: 0.1661 ± 0.02 g
- Weight of organs, Left testis [1, 2]: 0.1070 ± 0.01 g
- Weight of organs, Liver [1, 2]: 1.023 ± 0.12b*c* g
- Weight of organs, Lung [1, 2]: 0.1523 ± 0.02 g
- Weight of organs, Pancreas [1, 2]: 0.3202 ± 0.07 g
- Weight of organs, Right kidney [1, 2]: 0.1640 ± 0.02 g
- Weight of organs, Right testis [1, 2]: 0.1060 ± 0.01c* g
- Weight of organs, Spleen [1, 2]: 0.0763 ± 0.01 g
- Weight of organs, adipose tissue [1, 2]: 1.0047 ± 0.30b* g
- Weight of organs, Heart [1, 3]: 0.1199 ± 0.01 g
- Weight of organs, Left kidney [1, 3]: 0.1703 ± 0.02 g
- Weight of organs, Left testis [1, 3]: 0.1065 ± 0.01 g
- Weight of organs, Liver [1, 3]: 1.138 ± 0.18a*c** g
- Weight of organs, Lung [1, 3]: 0.1565 ± 0.02 g
- Weight of organs, Pancreas [1, 3]: 0.3329 ± 0.05b* g
- Weight of organs, Right kidney [1, 3]: 0.1648 ± 0.02 g
- Weight of organs, Right testis [1, 3]: 0.1085 ± 0.01c* g
- Weight of organs, Spleen [1, 3]: 0.0794 ± 0.02 g
- Weight of organs, adipose tissue [1, 3]: 1.2216 ± 0.41a*c* g
- Weight of organs, Heart [1, 4]: 0.1207 ± 0.01 g
- Weight of organs, Left kidney [1, 4]: 0.1750 ± 0.02c* g
- Weight of organs, Left testis [1, 4]: 0.1041 ± 0.01 g
- Weight of organs, Liver [1, 4]: 1.048 ± 0.06a*b*c *** g
- Weight of organs, Lung [1, 4]: 0.1429 ± 0.02 g
- Weight of organs, Pancreas [1, 4]: 0.3115 ± 0.03 g
- Weight of organs, Right kidney [1, 4]: 0.1617 ± 0.01 g
- Weight of organs, Right testis [1, 4]: 0.1052 ± 0.01c* g
- Weight of organs, Spleen [1, 4]: 0.0807 ± 0.01a* g
- Weight of organs, adipose tissue [1, 4]: 1.0369 ± 0.44b* g
- hypoglycemia (KM mice): did not induce any one of 6 KM mice fasted for 13 hour to produce hypoglycemia
